Source: patent publication US9902728B2, “Pyrrolo and pyrazolopyrimidines as ubiquitin-specific protease 7 inhibitors” (Forma Therapeutics, Inc., priority 2014, dated 2018)

These compounds were tested against T1, USP7 (Homo sapiens, UniProt Q93009) (assay: USP7 Assay A (Ubitquin-Rhodamine 110 Assay)). Settings: USP7 activity in USP7 assay A and B (table does not say which assay per compound); read-out: USP7_IC50.
T1 construct: USP7, construct USP7 (208-1102) 6*His, Viva Biotech; 6xHis (C); purchased Viva Biotech
T1 sequence (Q93009 208-1102): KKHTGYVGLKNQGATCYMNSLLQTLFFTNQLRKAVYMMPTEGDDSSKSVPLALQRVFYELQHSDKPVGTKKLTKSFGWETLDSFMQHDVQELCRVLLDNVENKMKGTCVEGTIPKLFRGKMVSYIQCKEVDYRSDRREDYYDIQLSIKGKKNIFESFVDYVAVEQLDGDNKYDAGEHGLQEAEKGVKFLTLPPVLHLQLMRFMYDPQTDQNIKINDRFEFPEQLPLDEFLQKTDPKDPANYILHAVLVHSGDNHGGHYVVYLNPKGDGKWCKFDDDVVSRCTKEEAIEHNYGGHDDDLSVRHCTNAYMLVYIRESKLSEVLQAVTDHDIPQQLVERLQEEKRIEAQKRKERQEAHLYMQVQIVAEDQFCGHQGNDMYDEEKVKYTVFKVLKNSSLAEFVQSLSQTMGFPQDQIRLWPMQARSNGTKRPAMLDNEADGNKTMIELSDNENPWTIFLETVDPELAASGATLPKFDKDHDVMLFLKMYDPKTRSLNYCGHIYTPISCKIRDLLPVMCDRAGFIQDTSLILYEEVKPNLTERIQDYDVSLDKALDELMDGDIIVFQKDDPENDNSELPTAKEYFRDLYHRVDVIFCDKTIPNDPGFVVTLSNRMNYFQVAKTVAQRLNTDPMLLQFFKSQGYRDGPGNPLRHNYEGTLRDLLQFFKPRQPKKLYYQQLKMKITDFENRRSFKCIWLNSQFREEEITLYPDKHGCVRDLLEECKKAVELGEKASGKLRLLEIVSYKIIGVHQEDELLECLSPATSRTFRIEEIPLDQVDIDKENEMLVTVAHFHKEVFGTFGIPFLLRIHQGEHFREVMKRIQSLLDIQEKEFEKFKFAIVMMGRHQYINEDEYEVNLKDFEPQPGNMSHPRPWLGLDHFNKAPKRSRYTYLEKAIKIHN
Format: biochemical
Method in brief: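 Ub-Rh110 cleavage in 20 mM Tris-HCl pH 8.0 with 1 mM GSH, 0.03% BGG, 0.01% Triton X-100; compound preincubated with enzyme 30 min before substrate.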
Compound CN1CCN(c2ncc(C(=O)N3CCC(O)(Cn4cnc5c(cnn5-c5ccc(Cl)cc5)c4=O)CC3)o2)CC1 [Compound I-1085] has an IC50 of 1000 to 10000 nM. Compound Cn1cc(C(=O)N2CCC(O)(Cn3cnc4c(cnn4-c4ccc(F)cc4)c3=O)CC2)c(Cn2cccn2)n1 [Compound I-921] has an IC50 of 1000 to 10000 nM. Compound CC1(C(=O)N2CCC(O)(Cn3cnc4c(cnn4-c4ccc(OCC5(F)CCC5)cc4)c3=O)CC2)CC1 [Compound I-1119] has an IC50 of less than 200 nM. CC(c1ccccc1)c1nn(C)cc1C(=O)N1CCC(O)(Cn2cnc3c(cnn3-c3ccc(F)cc3)c2=O)CC1 (stereo not drawn) [Compound I-1025] gave an IC50 of 200 to 1000 nM. Work on O=C(c1cn(C2CC2)cn1)N1CCC(O)(Cn2cnc3c(cnn3-c3ccc(Cl)cc3)c2=O)CC1 [Compound I-1092] yielded an IC50 of 1000 to 10000 nM. In the case of O=C(c1cccn1Cc1c(F)cccc1F)N1CCC(O)(Cn2cnc3c(cnn3-c3ccc(F)cc3)c2=O)CC1 [Compound I-559], the IC50 is reported as 1000 to 10000 nM. For CC1(C(=O)N2CCC(O)(Cn3cnc4c(cnn4-c4cccc(OC5CCC(F)(F)CC5)c4)c3=O)CC2)CC1 [Compound I-1047], the IC50 was less than 200 nM. Compound CN1CCN(C(=O)N2CCC(O)(Cn3cnc4c(cnn4-c4ccc(OC5CCC(F)(F)CC5)cc4)c3=O)CC2)CC1 [Compound I-697] has an IC50 greater than 10000 nM. Compound O=C(c1ccc(F)cc1)N1CCC(O)(Cn2cnc3c(cnn3-c3ccc(OCC4(F)CCC4)cc3)c2=O)CC1 [Compound I-696] has an IC50 of 200 to 1000 nM. Compound O=C(C1CCC(Oc2cnccn2)CC1)N1CCC(O)(Cn2cnc3c(cnn3-c3ccc(F)cc3)c2=O)CC1 (stereo not drawn) [Compound I-1021] has an IC50 of 200 to 1000 nM. In the case of Cn1ncc2c1CN(C(=O)N1CCC(O)(Cn3cnc4c(cnn4-c4ccc(F)cc4)c3=O)CC1)CC2 [Compound I-762], the IC50 is reported as 1000 to 10000 nM. Work on O=C(C1CCC(Oc2cccc(F)n2)CC1)N1CCC(O)(Cn2cnc3c(cnn3-c3ccc(F)cc3)c2=O)CC1 (stereo not drawn) [Compound I-740] yielded an IC50 of 200 to 1000 nM. With O=C(c1ccc(N2CCN3CCCC3C2)cc1)N1CCC(O)(Cn2cnc3c(cnn3-c3ccc(F)cc3)c2=O)CC1 (stereo not drawn) [Compound I-1735] the IC50 was 1000 to 10000 nM. O=C(c1ncoc1Cc1ccccc1)N1CCC(O)(Cn2cnc3c(cnn3-c3ccc(F)cc3)c2=O)CC1 [Compound I-557] was tested, and the IC50 was 200 to 1000 nM.

Same assay, conditions: USP7 assay A and B (table does not say which assay per compound); Ubiquitin-Rhodamine 110 substrate; read-out: USP7_IC50
Work on C[C@H](CC(=O)N1CCC(O)(Cn2cnc3c(cnn3C(C)(C)C)c2=O)CC1)c1ccccc1 [Compound I-59] yielded an IC50 of 200 to 1000 nM.

Same assay, conditions: USP7 assay A and B (table does not say which assay per compound); read-out: USP7_IC50
CN(C)C(=O)N1CCC(O)(Cn2cnc3c(cnn3-c3ccc(OCC4CCC4)cc3)c2=O)CC1 [Compound I-1295] was tested, and the IC50 was 1000 to 10000 nM. For O=C(C1CC1)N1CCC(O)(Cn2cnc3c(cnn3-c3ccccc3)c2=O)CC1 [Compound I-158], the IC50 was 1000 to 10000 nM. Work on O=C(C1CC1)N1CCC(O)(Cn2cnc3c(cnn3-c3ccc(Nc4ccc(N5CCOCC5)cc4)cc3)c2=O)CC1 [Compound I-1234] yielded an IC50 of 1000 to 10000 nM. O=C(c1ccc(Cl)cc1)N1CCC(O)(Cn2cnc3c(cnn3-c3ccccc3)c2=O)CC1 [Compound I-280] was tested, and the IC50 was 1000 to 10000 nM. Work on CC(C)OCCNc1cccc(-n2ncc3c(=O)n(CC4(O)CCN(C(=O)C5CC5)CC4)cnc32)c1 [Compound I-1196] yielded an IC50 of 1000 to 10000 nM. Work on O=C(c1ccc(Oc2ncccn2)cc1)N1CCC(O)(Cn2cnc3c(cnn3-c3ccc(F)cc3)c2=O)CC1 [Compound I-539] yielded an IC50 of 1000 to 10000 nM. CNC(=O)Nc1cccc(-n2ncc3c(=O)n(CC4(O)CCN(C(=O)C5CC5)CC4)cnc32)c1 [Compound I-507] showed an IC50 of 1000 to 10000 nM. COc1ccc(OC)c(C(=O)N2CCC(O)(Cn3cnc4c(cnn4-c4ccccc4)c3=O)CC2)c1 [Compound I-221] gave an IC50 of 1000 to 10000 nM. Compound O=C(C1CC1)N1CCC(O)(Cn2cnc3c(cnn3-c3ccc(NS(=O)(=O)C4CC4)cc3)c2=O)CC1 [Compound I-1432] has an IC50 of 1000 to 10000 nM. O=C(C1CC1)N1CCC(O)(Cn2cnc3c(cnn3-c3ccc(-c4ccccn4)cc3)c2=O)CC1 [Compound I-1214] was tested, and the IC50 was 1000 to 10000 nM. Work on C[C@](O)(c1ccc(C(=O)N2CCC(O)(Cn3cnc4c(cnn4-c4ccc(F)cc4)c3=O)CC2)cc1)C(F)(F)F (single isomer, unassigned) [Compound I-528] yielded an IC50 of 1000 to 10000 nM. CN(C)C(=O)N1CCC(O)(Cn2cnc3c(cc(-c4ccccc4)n3-c3ccc(F)cc3)c2=O)CC1 [Compound I-706] was tested, and the IC50 was 1000 to 10000 nM.
